From ChEMBL document CHEMBL1137802, “Specific antioxidant activity of caffeoyl derivatives and other natural phenolic compounds: LDL protection against oxidation and decrease in the proinflammatory lysophosphatidylcholine production” (J Nat Prod, 2001)

Legend:
Assay type in all cases: functional, cell-free
[1] = Antioxidant activity against Cu2+-induced lipid peroxidation in human plasma LDL assessed as maximal compound concentration at 20 umol/L preincubated for 1 hr before Cu2+ challenge measured after 60 mins relative to compound present at 0 min
[2] = Antioxidant activity against Cu2+-induced lipid peroxidation in human plasma LDL assessed as lysophosphatidylcholine formation at 5 umol/L preincubated for 1 hr before Cu2+ challenge measured after 90 mins
[3] = Antioxidant activity against Cu2+-induced lipid peroxidation in human plasma LDL assessed as vitamin E consumption at 10 umol/L preincubated for 1 hr before Cu2+ challenge measured after 150 mins
[4] = Antioxidant activity against Cu2+-induced lipid peroxidation in human plasma LDL assessed as maximal compound concentration at 10 umol/L preincubated for 1 hr before Cu2+ challenge measured after 60 mins relative to compound present at 0 min
[5] = Antioxidant activity against Cu2+-induced lipid peroxidation in human plasma LDL assessed as maximal compound concentration at 5 umol/L preincubated for 1 hr before Cu2+ challenge measured after 90 mins relative to compound present at 0 min
[6] = Antioxidant activity against Cu2+-induced lipid peroxidation in human plasma LDL assessed as conjugated diene formation at 5 umol/L preincubated for 1 hr before Cu2+ challenge measured after 180 mins
[7] = Antioxidant activity against Cu2+-induced lipid peroxidation in human plasma LDL assessed as vitamin E consumption at 10 umol/L preincubated for 1 hr before Cu2+ challenge measured after 180 mins
[8] = Antioxidant activity against Cu2+-induced lipid peroxidation in human plasma LDL assessed as maximal compound concentration at 10 umol/L preincubated for 1 hr before Cu2+ challenge measured after 180 mins relative to compound present at 0 min
[9] = Antioxidant activity against Cu2+-induced lipid peroxidation in human plasma LDL assessed as vitamin E consumption at 10 umol/L preincubated for 1 hr before Cu2+ challenge measured after 60 mins
[10] = Antioxidant activity against Cu2+-induced lipid peroxidation in human plasma LDL assessed as maximal compound concentration at 5 umol/L preincubated for 1 hr before Cu2+ challenge measured after 150 mins relative to compound present at 0 min
[11] = Antioxidant activity against Cu2+-induced lipid peroxidation in human plasma LDL assessed as maximal compound concentration at 20 umol/L preincubated for 1 hr before Cu2+ challenge measured after 210 mins relative to compound present at 0 min
[12] = Antioxidant activity against Cu2+-induced lipid peroxidation in human plasma LDL assessed as maximal compound concentration at 20 umol/L preincubated for 1 hr before Cu2+ challenge measured after 30 mins relative to compound present at 0 min
[13] = Antioxidant activity against Cu2+-induced lipid peroxidation in human plasma LDL assessed as maximal compound concentration at 10 umol/L preincubated for 1 hr before Cu2+ challenge measured after 15 mins relative to compound present at 0 min
[14] = Antioxidant activity against Cu2+-induced lipid peroxidation in human plasma LDL assessed as conjugated diene formation at 20 umol/L preincubated for 1 hr before Cu2+ challenge measured after 210 mins
[15] = Antioxidant activity against Cu2+-induced lipid peroxidation in human plasma LDL assessed as lysophosphatidylcholine formation at 5 umol/L preincubated for 1 hr before Cu2+ challenge measured after 180 mins
[16] = Antioxidant activity against Cu2+-induced lipid peroxidation in human plasma LDL assessed as maximal compound concentration at 5 umol/L preincubated for 1 hr before Cu2+ challenge measured after 30 mins relative to compound present at 0 min
[17] = Antioxidant activity against Cu2+-induced lipid peroxidation in human plasma LDL assessed as vitamin E consumption at 5 umol/L preincubated for 1 hr before Cu2+ challenge measured after 30 mins
[18] = Antioxidant activity against Cu2+-induced lipid peroxidation in human plasma LDL assessed as conjugated diene formation at 10 umol/L preincubated for 1 hr before Cu2+ challenge measured after 150 mins
[19] = Antioxidant activity against Cu2+-induced lipid peroxidation in human plasma LDL assessed as vitamin E consumption at 10 umol/L preincubated for 1 hr before Cu2+ challenge measured after 90 mins
[20] = Antioxidant activity against Cu2+-induced lipid peroxidation in human plasma LDL assessed as maximal compound concentration at 5 umol/L preincubated for 1 hr before Cu2+ challenge measured after 15 mins relative to compound present at 0 min
[21] = Antioxidant activity against Cu2+-induced lipid peroxidation in human plasma LDL assessed as lysophosphatidylcholine formation at 5 umol/L preincubated for 1 hr before Cu2+ challenge measured after 210 mins
[22] = Antioxidant activity against Cu2+-induced lipid peroxidation in human plasma LDL assessed as conjugated diene formation at 20 umol/L preincubated for 1 hr before Cu2+ challenge measured after 150 mins
[23] = Antioxidant activity against Cu2+-induced lipid peroxidation in human plasma LDL assessed as lysophosphatidylcholine formation at 5 umol/L preincubated for 1 hr before Cu2+ challenge measured after 150 mins
[24] = Antioxidant activity against Cu2+-induced lipid peroxidation in human plasma LDL assessed as maximal compound concentration at 20 umol/L preincubated for 1 hr before Cu2+ challenge measured after 270 mins relative to compound present at 0 min
[25] = Antioxidant activity against Cu2+-induced lipid peroxidation in human plasma LDL assessed as conjugated diene formation at 10 umol/L preincubated for 1 hr before Cu2+ challenge measured after 360 mins
[26] = Antioxidant activity against Cu2+-induced lipid peroxidation in human plasma LDL assessed as lysophosphatidylcholine formation at 5 umol/L preincubated for 1 hr before Cu2+ challenge measured after 120 mins
[27] = Antioxidant activity against Cu2+-induced lipid peroxidation in human plasma LDL assessed as vitamin E consumption at 20 umol/L preincubated for 1 hr before Cu2+ challenge measured after 120 mins
[28] = Antioxidant activity against Cu2+-induced lipid peroxidation in human plasma LDL assessed as lysophosphatidylcholine formation at 5 umol/L preincubated for 1 hr before Cu2+ challenge measured after 360 mins
[29] = Antioxidant activity against Cu2+-induced lipid peroxidation in human plasma LDL assessed as maximal compound concentration at 5 umol/L preincubated for 1 hr before Cu2+ challenge measured after 210 mins relative to compound present at 0 min
[30] = Antioxidant activity against Cu2+-induced lipid peroxidation in human plasma LDL assessed as conjugated diene formation at 20 umol/L preincubated for 1 hr before Cu2+ challenge measured after 60 mins
[31] = Antioxidant activity against Cu2+-induced lipid peroxidation in human plasma LDL assessed as lysophosphatidylcholine formation at 10 umol/L preincubated for 1 hr before Cu2+ challenge measured after 90 mins
[32] = Antioxidant activity against Cu2+-induced lipid peroxidation in human plasma LDL assessed as vitamin E consumption at 20 umol/L preincubated for 1 hr before Cu2+ challenge measured after 180 mins
[33] = Antioxidant activity against Cu2+-induced lipid peroxidation in human plasma LDL assessed as conjugated diene formation at 10 umol/L preincubated for 1 hr before Cu2+ challenge measured after 60 mins

CC(C)(Sc1cc(C(C)(C)C)c(O)c(C(C)(C)C)c1)Sc1cc(C(C)(C)C)c(O)c(C(C)(C)C)c1
Activity [1]: 51.7%
Activity [2]: 4.1%
Activity [3]: 0%
Activity [4]: 34.1%
Activity [5]: 55.3%
Activity [6]: 79.5%
Activity [7]: 0%
Activity [8]: 31.2%
Activity [9]: 0%
Activity [10]: 28.6%
Activity [11]: 38.3%
Activity [12]: 91.8%
Activity [13]: 86.6%
Activity [14]: 2.6%
Activity [15]: 19.4%
Activity [16]: 94.8%
Activity [17]: 15.5%
Activity [18]: 77.2%
Activity [19]: 0%
Activity [20]: 96%
Activity [21]: 23.1%
Activity [22]: 1.1%
Activity [23]: 17.5%
Activity [24]: 34.6%
Activity [25]: 100%
Activity [26]: 10.6%
Activity [27]: 0%
Activity [28]: 29.1%
Activity [29]: 36.8%
Activity [30]: 1.3%
Activity [31]: 0%
Activity [32]: 0%
Activity [33]: 0.6%
